Results: the supplement of paper PMC10307832

What was measured:
Experiment in all cases: relative viability (nuclei count vs DMSO), 5 days (fraction); higher = more cells survive
VE-821 + Palbociclib = compound: CS(=O)(=O)c1ccc(-c2cnc(N)c(C(=O)Nc3ccccc3)n2)cc1 [VE-821] + CC(=O)c1c(C)c2cnc(Nc3ccc(N4CCNCC4)cn3)nc2n(C2CCCC2)c1=O [Palbociclib] (partner 0.5 µM)
Procedure, shortened: (§1)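 Medians of duplicate plates are given as relative viability. That measure is the nuclei count in treated wells divided by the count in vehicle wells. Counts were taken on 4× images of lung cancer cell lines in 1536-well plates, 5 days after pin-tool dosing the day after seeding with one drug alone or a fixed anchor-drug dose plus five library-drug doses (not always all listed) in √10 steps.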

VE-821 + Phenformin = compound: CS(=O)(=O)c1ccc(-c2cnc(N)c(C(=O)Nc3ccccc3)n2)cc1 [VE-821] + N=C(N)NC(=N)NCCc1ccccc1 [Phenformin] (partner 250 µM)
Procedure, shortened: as §1

Vismodegib + Crizotinib = compound: CS(=O)(=O)c1ccc(C(=O)Nc2ccc(Cl)c(-c3ccccn3)c2)c(Cl)c1 [Vismodegib] + C[C@@H](Oc1cc(-c2cnn(C3CCNCC3)c2)cnc1N)c1c(Cl)ccc(F)c1Cl [Crizotinib] (partner 1 µM)
Procedure, shortened: as §1

Ruxolitinib + Bortezomib = compound: N#CC[C@H](C1CCCC1)n1cc(-c2ncnc3[nH]ccc23)cn1 [Ruxolitinib] + CC(C)C[C@H](NC(=O)[C@H](Cc1ccccc1)NC(=O)c1cnccn1)B(O)O [Bortezomib] (partner 0.002 µM)
Procedure, shortened: as §1

Row | Cell Line | relative viability (VE-821 + Palbociclib; first compound 0.08 µM) | relative viability (VE-821 + Palbociclib; first compound 0.253 µM) | relative viability (VE-821 + Palbociclib; first compound 0.8 µM) | relative viability (VE-821 + Palbociclib; first compound 2.53 µM) | relative viability (VE-821 + Palbociclib; first compound 8 µM) | relative viability (VE-821 + Phenformin; first compound 0.08 µM) | relative viability (VE-821 + Phenformin; first compound 0.253 µM) | relative viability (VE-821 + Phenformin; first compound 0.8 µM) | relative viability (VE-821 + Phenformin; first compound 2.53 µM) | relative viability (VE-821 + Phenformin; first compound 8 µM) | relative viability (Vismodegib + Crizotinib; first compound 0.08 µM) | relative viability (Vismodegib + Crizotinib; first compound 0.253 µM) | relative viability (Vismodegib + Crizotinib; first compound 0.8 µM) | relative viability (Vismodegib + Crizotinib; first compound 2.53 µM) | relative viability (Vismodegib + Crizotinib; first compound 8 µM) | relative viability (Ruxolitinib + Bortezomib; first compound 0.253 µM) | relative viability (Ruxolitinib + Bortezomib; first compound 0.8 µM) | relative viability (Ruxolitinib + Bortezomib; first compound 2.53 µM) | relative viability (Ruxolitinib + Bortezomib; first compound 8 µM) | relative viability (Ruxolitinib + Bortezomib; first compound 0.08 µM)
1 | NCI-H520 | 0.243 | 0.242 | 0.177 | 0.269 | 0.188 | 0.575 | 0.613 | 0.375 | 0.818 | 0.381 | 0.854 | 0.662 | 0.714 | 0.679 | 0.896 | 0.323 | 0.859 | 0.323 | 0.364 | 
2 | NCI-H2405 | 0.533 | 0.496 | 0.541 | 0.558 | 0.408 | 0.37 | 0.373 | 0.36 | 0.453 | 0.432 | 0.851 | 0.86 | 0.807 | 0.784 | 0.83 | 0.968 | 0.923 | 0.99 | 0.23 | 1.02
3 | PC-3 [JPC-3] | 0.266 | 0.478 | 0.58 | 0.54 | 0.56 | 0.455 | 0.504 | 0.448 | 0.469 | 0.451 | 0.93 | 0.991 | 0.964 | 0.93 | 0.956 | 0.819 | 0.738 | 0.796 | 0.7 | 0.63
4 | EBC-1 |  |  |  |  |  |  |  |  |  |  | 0.173 | 0.201 | 0.168 | 0.182 | 0.202 | 0.49 | 0.597 | 0.42 | 0.361 | 0.592
5 | NCI-H2347 | 0.385 | 0.492 | 0.42 | 0.457 | 0.498 | 0.476 | 0.295 | 0.347 | 0.495 | 0.358 | 0.691 | 0.713 | 0.64 | 0.582 | 0.656 | 0.907 | 0.931 | 0.917 | 1.2 | 
6 | LXF-289 | 0.583 | 0.606 | 0.716 | 0.677 | 0.712 | 0.541 | 0.53 | 0.532 | 0.527 | 0.562 | 0.806 | 0.772 | 0.816 | 0.745 | 0.781 | 0.963 | 0.991 | 0.933 | 0.897 | 1
7 | HCC-78 | 0.491 | 0.453 | 0.482 | 0.489 | 0.461 | 0.646 | 0.639 | 0.746 | 0.731 | 0.617 | 0.307 | 0.351 | 0.286 | 0.351 | 0.347 | 0.365 | 0.441 | 0.354 | 0.391 | 0.379
8 | HCC-366 | 0.668 | 0.378 | 0.303 | 0.0939 | 0.0558 | 0.709 | 0.57 | 0.555 | 0.502 | 0.12 | 0.623 | 0.567 | 0.501 | 0.508 | 0.566 | 0.987 | 1.16 | 1.01 | 0.845 | 1.03
9 | NCI-H2023 | 0.452 | 0.346 | 0.317 | 0.297 | 0.124 | 0.481 | 0.394 | 0.282 | 0.272 | 0.139 | 0.586 | 0.56 | 0.707 | 0.615 | 0.685 | 0.928 | 1.43 | 0.844 | 1.01 | 1.13
10 | NCI-H1734 | 0.462 | 0.363 | 0.325 | 0.337 | 0.532 | 0.392 | 0.386 | 0.377 | 0.402 | 0.271 | 0.687 | 0.654 | 0.762 | 0.62 | 0.756 | 0.924 | 0.983 | 0.74 | 0.835 | 0.928
11 | NCI-H522 | 1.06 | 1.15 | 0.754 | 0.932 | 0.999 | 0.675 | 0.593 | 0.662 | 0.555 | 0.654 |  |  |  |  |  |  |  |  |  | 
12 | Calu-6 |  |  |  |  |  |  |  |  |  |  | 0.705 | 0.754 | 0.757 | 0.814 | 0.886 | 0.93 | 1.18 | 0.921 | 0.557 | 1.02
13 | IA-LM |  |  |  |  |  |  |  |  |  |  | 0.719 | 0.769 | 0.906 | 0.681 | 0.94 | 0.931 | 0.971 | 0.917 | 0.61 | 0.998
14 | NCI-H1793 | 0.361 | 0.32 |  | 0.447 | 0.333 | 0.437 | 0.3 | 0.325 | 0.49 | 0.239 |  |  |  |  |  |  |  |  |  | 
15 | LK-2 | 0.762 | 0.737 | 0.781 | 0.563 | 0.639 | 0.639 | 0.366 | 0.459 | 0.925 | 0.374 | 0.247 | 0.248 | 0.215 | 0.203 | 0.239 |  |  |  |  | 
16 | NCI-H1395 | 0.725 | 0.658 | 0.549 | 0.586 | 0.516 | 0.43 | 0.415 | 0.449 | 0.467 | 0.41 |  |  |  |  |  |  |  |  |  | 
17 | NCI-H1648 | 0.269 |  | 0.252 | 0.265 | 0.349 |  |  |  |  |  |  |  |  |  |  |  |  |  |  | 
18 | NCI-H1944 | 0.408 | 0.325 | 0.256 | 0.354 | 0.236 | 0.235 | 0.2 | 0.172 | 0.238 | 0.157 | 0.993 | 1.22 | 1.08 | 1.05 | 1.08 |  |  |  |  | 
19 | NCI-H1703 |  |  |  |  |  |  |  |  |  |  | 0.54 | 0.664 | 0.628 | 0.57 | 0.93 | 0.38 | 0.346 | 0.338 | 0.245 | 0.412
20 | NCI-H1299 |  |  |  |  |  |  |  |  |  |  | 0.918 | 0.929 | 0.96 | 0.96 | 0.947 | 0.997 | 1.02 | 0.932 | 0.984 | 1
21 | SK-MES-1 | 0.339 | 0.345 | 0.323 | 0.296 | 0.287 | 0.708 | 0.626 | 0.718 | 0.628 | 0.445 | 0.94 | 0.936 | 0.923 | 0.969 | 1.07 |  |  |  |  | 
22 | NCI-H2170 | 0.432 | 0.414 | 0.381 | 0.45 | 0.32 | 0.416 | 0.399 | 0.358 | 0.412 | 0.359 | 1.23 | 1.08 | 1.19 | 1.17 | 1.31 |  |  |  |  | 
